In article PMC11984924, “Dipeptidic Phosphonates: Potent Inhibitors of Pseudomonas aeruginosa Elastase B Showing Efficacy in a Murine Keratitis Model” (Advanced Science, 2025):

How the values were obtained:
44 key molecular targets = assay: SafetyScreen44 in vitro panel (whole panel); design: species or system human; conditions: 100 µM
From the text: (§1) Moreover, we explored the safety profile of frontrunner (R)‐30 in more detail in order to detect additional crucial off‐target interactions. For this purpose, we employed the SafetyScreen44 in vitro panel comprising selected binding, inhibition and uptake assays.^[ [35] ^] The panel is a specialized pharmacological profiling tool that tests compounds against 44 key molecular targets, aiming to identify potential safety risks early in drug discovery. […]
(§2) The off-target Safety Screen44TM was performed by the CRO Eurofins Cerep SA (Celle-
(§3) L'Evescault, France) according to their protocols.[13] […]
(§4) MMP-1 MMP-2 MMP-3 TACE (ADAM17)
(§5) Compound [% inhibition at [% inhibition at [% inhibition at [% inhibition at 100

hERG potassium channel = target: T1, hERG potassium channel (Homo sapiens, UniProt Q12809); assay: SafetyScreen44: hERG binding
T1 construct: Eurofins Cerep SA (CRO)
From the text: as §1, §2, §3, §4, §5

sodium channel = assay: SafetyScreen44: sodium channel binding; design: species or system human; conditions: 100 µM
From the text: as §1, §2, §3, §4, §5

[1] = target: T2, 5‐hydroxytryptamin transporter (5‐HTT) (Homo sapiens, UniProt P31645); assay: SafetyScreen44: 5-HTT binding
T2 construct: Eurofins Cerep SA (CRO)
From the text: as §1, §2, §3, §4, §5

[2] = tested on: P. aeruginosa strain PA54 keratitis; assay: Murine Pseudomonas keratitis model; assay type: in vivo, mouse
Method: Based on our previous findings on target engagement in a murine pneumonia model in combination with a standard‐of‐care antibiotic,^[ [30] ^] we applied the dipeptide (R)‐30 alone and in combination with the commonly used antibiotic meropenem.^[ [9] ^] The keratitis model was carried out using aged female C57BL/6 mice, as previously published.^[ [37] ^] For infection, 5*10^7 colony forming units (CFUs) of PA54 were topically administered on denuded, mechanically harmed corneas. Treatments with meropenem, (R)‐30, or meropenem in combination with (R)‐30 were performed every 8 h for 72 h (first treatment at 6 h post infection). Each of the in total nine 5 µL‐doses contained 1 mg/mL (R)‐30 and/or 0.5 mg mL^−1 meropenem. Sham‐treated mice received 5 µL‐doses of the vehicle (0.9% saline and 1% DMSO) at the time points indicated above, and uninfected eyes received no treatment. […]
Animals: The animal experiments were approved by Saarland University’s Animal Welfare Committee (Application number: 17/2021) and conducted in accordance with German and European recommendations and guidelines for the ethical use of animals. The laboratory animals were all C57BL/6N female eight to eleven months old mice. Keeping in specific pathogen-free conditions was provided. Unlimited access to water and show was secured.
Temperature was closely maintained around 22 °C and relative air humidity around 50%. Light and darkness alternated at twelve-hour intervals. All laboratory animals were purchased from Charles River GmbH, Sulzfeld, Germany.
P. aeruginosa: The P. aeruginosa strain PA54 was employed to induce an experimental bacterial keratitis in the aforementioned C57BL/6N mice. The strain PA54 was isolated from human infections and collected at Saarland University Medical Center’s Institute for Medical Microbiology and Hygienics (IMMH) in 2009. According to Magiorakos et al., PA54 can be classified as multidrug-resistant due to its lacking sensibility to the anti-pseudomonal cephalosporins ceftazidime and cefepime, the anti-pseudomonal fluoroquinolones ciprofloxacin and levofloxacin, the […] fosfomycin, and the aminoglycoside gentamicin.[18] The minimum inhibitory concentration (MIC) of the reserve antibiotic meropenem (meropenem trihydrate, Sigma) was 1 µg/mL (sensitivity limit = 2 µg/mL). The exoU- and exoT-positivity of the PA54 strain, foregrounds its keratitogenic potential.
Inoculum: The P. aeruginosa strain PA54 is routinely grown overnight on blood agar (TrypticaseTM Soy Agar, 5% sheep blood, BD, Heidelberg, Germany) at 37 °C. To obtain a stationary phase cell inoculum, a freshly grown colony was inoculated in tryptic soy broth (TSB; BD, Heidelberg, Germany) and cultured at 37 °C and 150 rounds per minute (rpm) for 16 h.
Then, 2 mL were centrifuged at 13,200 rpm at rt for 2 min, whereupon cells were resuspended in spent medium to an OD600 of 10 (∼1×1010 CFU/mL). Short storage on ice followed, before the infection procedure started.
Infection Procedure: Anesthesia and infection were performed as previously published. Briefly, fentanyl (Hameln Pharma Plus GmbH, Hameln, Germany), midazolam hydrochloride (Midazolam-Hameln, 5 mg/mL, Hameln pharma GmbH, Germany) and medetomidine hydrochloride (Domitor, Orion Corporation, Espoo, Finland) were dissolved in 0.9% NaCl (NaCl 0.9%, Ecotainer 500 mL, B. Braun, Melsungen, Germany), dosed at 0.05 mg/kg, 5 mg/kg and 0.5 mg/kg body weight, respectively, and applied by intraperitoneal injection. Analgesia (Carprofen, 5 mg/kg body weight, Zoetis Deutschland GmbH, Berlin, Germany) was ap plied subcutaneously. Lacrimation was stopped with 10 µL of a 0.6% acetylcysteine solution (Pharmacy of Saarland University Hospitals, Homburg, Germany). Local analgesia (0.5% proxymetacaine hydrochloride, Proparakain -POS Augentropfen, Ursapharm Arzneimitt el GmbH, Saarbrücken, Germany) was eye-dropped and removed after 60 seconds. The blunt […]

[3] = Stability in rat liver microsomes; assay type: in vitro ADME; conditions: Wistar, read-out: Rat Liver Microsomes t1/2
Method: Samples were stored on ice until the end of the incubation and precipitated protein was removed by centrifugation (15 min, 4 °C, 4,000 g). Concentration of the remaining test […]
compound at the different time points was analyzed by HPLC-MS/MS (TSQ Quantum Access […]
MAX, Thermo Fisher, Dreieich, Germany) and used to determine half -life (t1/2) and intrinsic […]
Species profiling was conducted as above using 0.5 mg/mL pooled mouse, rat or minipig liver microsomes (Xenotech, Kansas City, USA) with 2 mM NADPH and 10 mM MgCl2 and testosterone, verapamil and ketoconazole as reference compounds. […]
(§6) Thermo Fisher, Dreieich, Germany) and used to determine half-life (t1/2).
(§7) Table S2: Additional in vitro ADMET data for selected dipeptides. n.d.: not determined.
(§8) Kinetic Liver S9 Clint [µL/mg/min] Plasma t1/2 [min] LogD7.4 […]
(§9) pH 7.4 [µM] Mouse Human Mouse Human

[4] = Plasma stability, Göttingen minipig; assay type: in vitro ADME; conditions: read-out: Minipig Plasma t1/2
Method: To determine stability in plasma, the compound (1 µM) was incubated with pooled CD -1 […]
mouse/human/Wistar rat or Göttingen minipig plasma (Neo Biotech, Nanterre, France).
Samples were taken by mixing aliquots with 4 volumes of acetonitrile containing internal […]
standard (125 nM diphenhydramine). The plasma stability of procain, propantheline and diltiazem were determined in parallel to confirm the enzymatic activity. Samples were stored […]
on ice until the end of the incubation and precipitated protein was removed by centrifugation […]
(15 min, 4 °C, 4,000 g, two centrifugation steps). Concentration of the remaining test compound at the different time points was analyzed by HPLC-MS/MS (TSQ Quantum Access MAX, […]
as §6, §7, §8, §9

T2 sequence (P31645 whole entry): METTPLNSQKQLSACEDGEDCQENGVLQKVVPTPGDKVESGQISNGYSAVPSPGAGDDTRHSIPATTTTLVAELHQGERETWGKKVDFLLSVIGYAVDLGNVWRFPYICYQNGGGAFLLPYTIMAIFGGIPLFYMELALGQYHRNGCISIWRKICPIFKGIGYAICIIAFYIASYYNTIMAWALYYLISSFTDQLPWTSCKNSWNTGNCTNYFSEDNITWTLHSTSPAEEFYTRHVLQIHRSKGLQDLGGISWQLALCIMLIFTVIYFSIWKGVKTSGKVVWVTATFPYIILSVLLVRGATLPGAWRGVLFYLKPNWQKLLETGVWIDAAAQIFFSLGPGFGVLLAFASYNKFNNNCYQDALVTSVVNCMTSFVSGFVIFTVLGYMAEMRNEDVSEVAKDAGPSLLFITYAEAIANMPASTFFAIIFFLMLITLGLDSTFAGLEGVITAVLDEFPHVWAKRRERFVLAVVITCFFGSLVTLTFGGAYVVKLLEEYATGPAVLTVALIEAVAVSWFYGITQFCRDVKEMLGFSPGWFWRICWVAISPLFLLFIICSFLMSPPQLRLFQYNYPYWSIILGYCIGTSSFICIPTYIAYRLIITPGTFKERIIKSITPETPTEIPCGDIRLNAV
T1 sequence (Q12809 whole entry): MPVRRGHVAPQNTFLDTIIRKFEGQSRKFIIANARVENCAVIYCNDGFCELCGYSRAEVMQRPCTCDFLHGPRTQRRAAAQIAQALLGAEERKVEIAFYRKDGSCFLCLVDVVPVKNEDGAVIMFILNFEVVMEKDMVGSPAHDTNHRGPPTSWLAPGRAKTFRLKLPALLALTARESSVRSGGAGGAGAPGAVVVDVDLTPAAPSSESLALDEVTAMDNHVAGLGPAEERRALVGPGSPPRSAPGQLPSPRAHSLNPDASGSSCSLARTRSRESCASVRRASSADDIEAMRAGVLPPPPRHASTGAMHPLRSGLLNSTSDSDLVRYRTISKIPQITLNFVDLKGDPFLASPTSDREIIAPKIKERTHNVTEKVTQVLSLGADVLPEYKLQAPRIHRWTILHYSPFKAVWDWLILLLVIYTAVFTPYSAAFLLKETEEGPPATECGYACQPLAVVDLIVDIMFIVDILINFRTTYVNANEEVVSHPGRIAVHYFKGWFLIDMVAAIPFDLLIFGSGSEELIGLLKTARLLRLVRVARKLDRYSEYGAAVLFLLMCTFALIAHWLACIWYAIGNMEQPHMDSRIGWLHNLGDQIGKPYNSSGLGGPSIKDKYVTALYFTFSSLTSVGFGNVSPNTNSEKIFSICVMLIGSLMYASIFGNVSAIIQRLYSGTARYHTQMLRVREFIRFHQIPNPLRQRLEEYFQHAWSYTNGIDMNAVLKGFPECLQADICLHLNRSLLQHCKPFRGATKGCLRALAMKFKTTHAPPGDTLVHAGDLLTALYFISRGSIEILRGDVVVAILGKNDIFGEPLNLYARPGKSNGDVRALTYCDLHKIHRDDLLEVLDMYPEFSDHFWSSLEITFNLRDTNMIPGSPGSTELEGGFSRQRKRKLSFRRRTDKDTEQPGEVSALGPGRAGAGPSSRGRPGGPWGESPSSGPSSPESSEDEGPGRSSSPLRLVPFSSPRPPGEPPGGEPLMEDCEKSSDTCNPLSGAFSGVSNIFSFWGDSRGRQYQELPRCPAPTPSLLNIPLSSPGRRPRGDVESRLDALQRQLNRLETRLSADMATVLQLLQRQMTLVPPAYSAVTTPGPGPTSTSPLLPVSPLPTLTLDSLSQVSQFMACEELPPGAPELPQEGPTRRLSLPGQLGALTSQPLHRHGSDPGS

SMILES | SafetyScreen44: number of targets inhibited (44 key molecular targets) | inhibition at 100 µM (hERG potassium channel) [%] | sodium channel binding inhibition (sodium channel) [%] | inhibition at 100 µM [1] [%] | effect on bacterial loads in the eye ([2]; day 3 post infection) | IL‐1β levels in eye homogenate ([2]; day 3 post infection, compared to sham treatment / uninfected eyes) | KC levels in eye homogenate ([2]; day 3 post infection, compared to uninfected eyes) | median clinical keratitis score ([2]; day three post infection, topical every 8 h for 72 h, 1 mg/mL (R)-30 and/or 0.5 mg/mL meropenem) | half-life at 1 µM [3] [h] | half-life at 1 µM [4] [h]
CC(=O)c1ccc(NC(=O)[C@@H](NC(=O)[C@@H](CC(C)C)P(=O)(O)O)C(C)C)cc1 [(R)‐30] | ten targets by >50% | 79.4 | 91.1 | 84.8 | no clear effect on the bacterial loads | significant reduction | significantly higher amounts of this chemokine | 4 |  | 
CC(=O)c1ccc(NC(=O)[C@@H](NC(=O)C(CC(C)C)P(=O)(O)O)C(C)C)cc1 (stereo partly shown) [compound 30] |  |  |  |  |  |  |  |  | > 2 | > 4
